These results are taken from PMC7238130, “Improved Dissolution and Pharmacokinetics of Abiraterone through KinetiSol® Enabled Amorphous Solid Dispersions” (Pharmaceutics, 2020).

The conditions of series [1]: cited from earlier work; for FaSSIF solubility (converted): conversion of the µM value.
Details of series [2]: method as in doi:10.1021/acs.jced.8b00566. The settings on record: cited from earlier work.
A short description of series [3]: In vitro, non-sink, gastric transfer dissolution (0.01 N HCl then FaSSIF). Type of series: physicochemical. As to the method: An in vitro, non-sink, gastric transfer dissolution method was developed to analyze the dissolution of abiraterone API, the generic abiraterone acetate tablets, the binary KSDs, to select ternary component for KSDs, as well as to analyze the dissolution of the ternary KSDs. For the dissolution analysis of abiraterone API and the binary and ternary KSDs, the samples (equivalent to 31 mg of abiraterone API) were loaded in an Erlenmeyer flask (dissolution vessel) containing 35 mL of 0.01N HCl (pH 2.0), placed in an incubator–shaker (Excella E24 (New Brunswick Scientific, Edison, NJ, USA)) set to 37 °C and a rotational speed of 180 rpm. After 30 min, 35 mL of FaSSIF (prepared in a 50 mM phosphate buffer at pH 6.8) was added to the dissolution vessel. At predetermined time points, samples were drawn from the dissolution vessel and centrifuged using an ultracentrifuge at 92,000 rpm for 90 s (Airfuge™, Beckman, Indianapolis, IN, USA). The supernatants were further diluted using the HPLC diluent and analyzed using the respective HPLC methods mentioned above. For the generic abiraterone acetate tablets, the whole tablet was analyzed, and the dissolution media volumes were scaled accordingly. For the selection of the ternary component, 35 mg of secondary polymer candidates were added in 35 mL of 0.01 N HCl (pH 2.0), and the dissolution of the binary KSD was conducted using the method described above. The area under the drug dissolution curve (AUDC) was calculated using the linear trapezoidal method.
For dissolution testing, we employed a two-stage, non-sink, gastric transfer dissolution method in which the sample is first exposed to acidic media, simulating fasted stomach content, followed by exposure to neutral-to-basic media, simulating fasted intestinal content.

Details of series [4]: method as in doi:10.1021/acs.jced.8b00566. The settings on record: cited from earlier work. This is another data set of the same source.

Values after ≈ are worked out from the molar mass of the structure shown.

Consider `CC(=O)O[C@H]1CC[C@@]2(C)C(=CC[C@@H]3[C@@H]2CC[C@]2(C)C(c4cccnc4)=CC[C@@H]32)C1` [abiraterone acetate, Abiraterone acetate], for which, in series [1], the FaSSIF solubility is 64.6 ± 5.2 µM and the “FaSSIF solubility (converted)” value was ~ 25.29 µg/mL.
On to `C[C@]12CC[C@H](O)CC1=CC[C@@H]1[C@@H]2CC[C@]2(C)C(c3cccnc3)=CC[C@@H]12` [Abiraterone API, Abiraterone], for which the water solubility in series [2] is recorded as 3.05 µg/mL (≈ 8.73 µM). Moreover, in series [1], the FaSSIF solubility is reported as 12.7 ± 4.2 µM and the “FaSSIF solubility (converted)” value is reported as ~ 4.43 µg/mL. Also, the “Percent Rel. AUDC0.01 N HCl (Relative to Lot 5 KSD)” value in series [3] (0.01 N HCl stage, 35 mg secondary polymer added externally where stated) stood at 1.8%. For the same molecule, in series [3] (35 mg secondary polymer added externally to 35 mL 0.01 N HCl where stated), the “Percent Rel. AUDCTotal (Relative to Lot 5 KSD)” value was 8.4%. For the same molecule, the “Percent Rel. AUDCFaSSIF (Relative to Lot 5 KSD)” value in series [3] (FaSSIF stage, 35 mg secondary polymer added externally where stated) stood at 46.2%. Further, in series [3] (pH 6.8, FaSSIF stage of gastric transfer dissolution, read-out: average drug concentration (solubility) in FaSSIF media), the solubility worked out at 11.3 µg/mL (≈ 32.4 µM). Further, in series [4], the “BCS (Biopharmaceutical Classification System) class” value is given as “Class IV” and the permeability entry was “low”.
